Measurements published in patent US4256761A, “Antihypertensive amides” (USV Pharmaceutical Corporation, priority 1979, dated 1981).

Assays:
[1] = system: angiotensin I-induced hypertensive rats; assay: oral antihypertensive activity in angiotensin I-induced hypertensive rats; type: in vivo; details: Rattus norvegicus, dose for 50% reduction in angiotensin I-induced hypertension, read-out: I50 (ID50, antihypertensive activity)
[2] = target: T1, angiotensin converting enzyme (Oryctolagus cuniculus, UniProt P12822); assay: angiotensin converting enzyme inhibition (ACEI activity), method of Science 196, 441-4 (1977); type: biochemical; details: amount required for 50% inhibitive effect, read-out: I50 (ACEI activity)
T1 sequence (P12822 34-1310): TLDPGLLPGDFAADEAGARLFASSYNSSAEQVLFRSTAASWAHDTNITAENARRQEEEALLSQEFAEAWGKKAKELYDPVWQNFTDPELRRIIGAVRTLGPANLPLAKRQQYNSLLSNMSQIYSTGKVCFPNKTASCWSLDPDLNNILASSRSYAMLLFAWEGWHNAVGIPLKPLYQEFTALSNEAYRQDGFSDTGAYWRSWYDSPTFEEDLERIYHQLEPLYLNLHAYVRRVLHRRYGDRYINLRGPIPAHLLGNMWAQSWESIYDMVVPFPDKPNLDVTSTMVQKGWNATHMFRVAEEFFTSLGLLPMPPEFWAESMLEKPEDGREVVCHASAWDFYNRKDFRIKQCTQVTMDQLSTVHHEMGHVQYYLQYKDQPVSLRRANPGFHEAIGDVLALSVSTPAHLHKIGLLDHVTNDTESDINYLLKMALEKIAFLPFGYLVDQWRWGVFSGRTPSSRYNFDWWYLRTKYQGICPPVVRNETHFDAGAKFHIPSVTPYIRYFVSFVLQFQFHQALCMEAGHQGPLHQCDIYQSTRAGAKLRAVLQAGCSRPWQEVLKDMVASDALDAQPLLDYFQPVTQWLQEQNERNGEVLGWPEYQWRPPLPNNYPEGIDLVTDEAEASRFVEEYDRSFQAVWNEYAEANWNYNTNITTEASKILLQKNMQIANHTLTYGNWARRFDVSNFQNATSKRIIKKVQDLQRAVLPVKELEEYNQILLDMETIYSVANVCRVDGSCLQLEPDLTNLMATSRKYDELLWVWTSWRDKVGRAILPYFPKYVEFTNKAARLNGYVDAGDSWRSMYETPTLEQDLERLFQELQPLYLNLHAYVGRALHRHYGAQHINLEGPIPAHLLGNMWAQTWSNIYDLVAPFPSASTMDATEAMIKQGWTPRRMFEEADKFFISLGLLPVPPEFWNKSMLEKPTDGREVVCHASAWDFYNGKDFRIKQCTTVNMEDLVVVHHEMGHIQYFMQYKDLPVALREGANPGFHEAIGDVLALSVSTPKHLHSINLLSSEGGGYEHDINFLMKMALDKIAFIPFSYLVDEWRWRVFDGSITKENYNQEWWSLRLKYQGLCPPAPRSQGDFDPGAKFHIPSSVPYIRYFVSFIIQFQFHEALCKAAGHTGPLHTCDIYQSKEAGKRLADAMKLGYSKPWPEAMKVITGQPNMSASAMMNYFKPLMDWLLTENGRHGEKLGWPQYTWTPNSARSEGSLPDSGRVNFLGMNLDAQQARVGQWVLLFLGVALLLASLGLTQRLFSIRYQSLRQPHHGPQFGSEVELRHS
Excerpt: The I50 value represents the amount in micromols required to give an inhibitive effect of 50% in the tests using the procedure described in the Science article.

Row | Compound | IC50 [2] [nM] | ED50 [1] [mg/kg]
1 | CC(CS)C(=O)N(CC(=O)O)C1Cc2ccccc2C1 (centres unmarked) [2-Indanyl H, N-(3-Mercapto-2-methylpropanoyl)-N-(indan-2-yl)glycine] |  | 0.16
2 | CC(CS)C(=O)N(CC(=O)O)C1CCCCCC1 (centres unmarked) [Cycloheptyl H, N-(3-Mercapto-2-methylpropanoyl)-N-cycloheptylglycine] |  | 0.021
3 | CC(CS)C(=O)N(CC(=O)O)C1CCCC1 (centres unmarked) [Cyclopentyl H, N-(3-Mercapto-2-methylpropanoyl)-N-cyclopentylglycine] |  | 0.15
4 | CC(=O)SCC(C)C(=O)N(CC(=O)O)C1CC1 (centres unmarked) [Cyclopropyl CH3 CO, N-(3-Acetylthio-2-methylpropanoyl)-N-(cyclopropyl)glycine] |  | 0.13
5 | CC(CS)C(=O)N(CC(=O)O)C1CCC1 (centres unmarked) [Cylcobutyl H, N-(3-Mercapto-2-methylpropanoyl)-N-cyclobutylglycine] |  | 0.21
6 | CC(=O)SCC(C)C(=O)N(CC(=O)O)c1ccccc1 (centres unmarked) [Phenyl CH3 CO, N-(3-Acetylthio-2-methylpropanoyl)-N-phenylglycine] |  | 0.23

Now from value to compound, other results behind:

Row | IC50 [2] [nM] | Compound | ED50 [1] [mg/kg]
7 | 88 | CC(=O)SCC(C)C(=O)N(CC(=O)O)C1CCCCCC1 (centres unmarked) [Cycloheptyl CH3 CO, N-(3-Acetylthio-2-methylpropanoyl)-N-cycloheptylglycine] | 
8 | 44 | CC(=O)SCC(C)C(=O)N(CC(=O)O)C1CCCC1 (centres unmarked) [Cyclopentyl CH3 CO, N-(3-Acetylthio-2-methylpropanoyl)-N-cyclopentylglycine] | 0.16
9 | 27 | CC(CS)C(=O)N(CC(=O)O)C1CC1 (centres unmarked) [Cyclopropyl H, N-(3-Mercapto-2-methylpropanoyl)-N-cyclopropylglycine] | 0.14
10 | 95 | COCCN(CC(=O)O)C(=O)C(C)CS (centres unmarked) [H3 CO(CH2)2 H] | 
11 | 55 | CSCCCN(CC(=O)O)C(=O)C(C)CS (centres unmarked) [H3 CS(CH2)3 H, N-(3-Mercapto-2-methylpropanoyl)-N-(3-methylthiopropyl)glycine] | 
12 | 22 | CC(=O)SCC(C)C(=O)N(CC(=O)O)[C@@H]1C[C@H]2CC[C@@H]1C2 (stereo partly drawn) [exo-Norbornyl CH3 CO, N-(3-Acetylthio-2-methylpropanoyl)-N-(exo-norbornyl)glycine] | 0.06
13 | 25 | CC(CS)C(=O)N(CC(=O)O)[C@@H]1C[C@H]2CC[C@@H]1C2 (stereo partly drawn) [exo-Norbornyl H, N-(3-Mercapto-2-methylpropanoyl)-N-(exo-norbornyl)glycine] | 0.11
